# Values joined by “and” are separate entries in the source; they are usually repeats but may differ in a detail not shown here. Identical values can stand only once. Inconclusive results and toxic doses are left out.
# Tested on: P388 leukemia ip, CD2F1 mice, survival T/C
# Assay: NCI In Vivo Anticancer Drug Screen. Data for tumor model P388 Leukemia (intraperitoneal) in CD2F1 (CDF1) mice
# Conditions: endpoint: median survival time, higher = longer survival
# Outline: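 Mice carrying the transplanted tumor received test compound or vehicle. Survival was recorded in each group, and the value is the treated-group measurement divided by that of the vehicle-treated control group.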
smiles,measurement,setting,value
N#Cc1ccc(NN=O)cc1,T/C,"dose: 3.12 mg/kg/injection, schedule: Q01DX009 (ip), vehicle: water",100 % of control
same,T/C,"dose: 6.25 mg/kg/injection, schedule: Q01DX009 (ip), vehicle: water",105 % of control
same,T/C,"dose: 12.5 mg/kg/injection, schedule: Q01DX009 (ip), vehicle: water",105 % of control
same,T/C,"dose: 25.0 mg/kg/injection, schedule: Q01DX009 (ip), vehicle: water",117 % of control
same,T/C,"dose: 100.0 mg/kg/injection, schedule: Q01DX009 (ip), vehicle: water",117 % of control
CCCCCCCCCCCCC[N+]1([O-])CCOCC1,T/C,"dose: 12.5 mg/kg/injection, schedule: Q01DX009 (ip), vehicle: saline",101 % of control
same,T/C,"dose: 25.0 mg/kg/injection, schedule: Q01DX009 (ip), vehicle: saline",100 % of control
same,T/C,"dose: 50.0 mg/kg/injection, schedule: Q01DX009 (ip), vehicle: saline",89 % of control and 96 % of control
COC1C(O)CC(OC2CC(Oc3cc4cc5c(c(O)c4c(O)c3C)C(=O)[C@@H](OC3CC(OC4CC(OC6CC(C)(O)C(OC(C)=O)C(C)O6)C(O)C(C)O4)C(O)C(C)O3)[C@H]([C@H](OC)C(=O)[C@@H](O)[C@@H](C)O)C5)OC(C)C2OC(C)=O)OC1C (stereo partly drawn),T/C,"dose: 0.02 mg/kg/injection, schedule: Q01DX001 (ip), vehicle: other",114 % of control
same,T/C,"dose: 0.02 mg/kg/injection, schedule: Q01DX009 (ip), vehicle: saline sonified",150 % of control
same,T/C,"dose: 0.03 mg/kg/injection, schedule: Q01DX005 (ip), vehicle: saline",150 % of control
same,T/C,"dose: 0.03 mg/kg/injection, schedule: Q01DX005 (iv), vehicle: saline",95 % of control
same,T/C,"dose: 0.03 mg/kg/injection, schedule: Q01DX009 (ip), vehicle: saline",154 % of control
same,T/C,"dose: 0.04 mg/kg/injection, schedule: Q01DX009 (ip), vehicle: saline sonified",165 % of control
same,T/C,"dose: 0.05 mg/kg/injection, schedule: Q01DX005 (ip), vehicle: saline",155 % of control
same,T/C,"dose: 0.06 mg/kg/injection, schedule: Q01DX005 (ip), vehicle: saline",175 % of control
same,T/C,"dose: 0.08 mg/kg/injection, schedule: Q01DX009 (ip), vehicle: saline sonified",180 % of control
same,T/C,"dose: 0.1 mg/kg/injection, schedule: Q01DX005 (ip), vehicle: saline",155 % of control
same,T/C,"dose: 0.1 mg/kg/injection, schedule: Q01DX005 (iv), vehicle: saline",98 % of control
same,T/C,"dose: 0.12 mg/kg/injection, schedule: Q01DX005 (ip), vehicle: saline",190 % of control
same,T/C,"dose: 0.12 mg/kg/injection, schedule: Q04DX003 (ip), vehicle: saline",154 % of control
same,T/C,"dose: 0.15 mg/kg/injection, schedule: Q01DX009 (ip), vehicle: saline sonified",180 % of control
same,T/C,"dose: 0.2 mg/kg/injection, schedule: Q01DX005 (ip), vehicle: saline",158 % of control
same,T/C,"dose: 0.2 mg/kg/injection, schedule: Q01DX005 (iv), vehicle: saline",100 % of control
same,T/C,"dose: 0.25 mg/kg/injection, schedule: Q01DX005 (ip), vehicle: saline",220 % of control
same,T/C,"dose: 0.25 mg/kg/injection, schedule: Q04DX003 (ip), vehicle: saline",175 % of control
same,T/C,"dose: 0.3 mg/kg/injection, schedule: Q01DX009 (ip), vehicle: saline sonified",180 % of control
same,T/C,"dose: 0.3 mg/kg/injection, schedule: Q04DX003 (ip), vehicle: saline sonified",181 % of control
same,T/C,"dose: 0.4 mg/kg/injection, schedule: Q01DX005 (ip), vehicle: saline",229 % of control
same,T/C,"dose: 0.5 mg/kg/injection, schedule: Q01DX001 (ip), vehicle: other",158 % of control
same,T/C,"dose: 0.5 mg/kg/injection, schedule: Q01DX001 (ip), vehicle: saline",172 % of control
same,T/C,"dose: 0.5 mg/kg/injection, schedule: Q04DX003 (ip), vehicle: saline",87 % of control
O=C1C2C3C=CC(C3)C2C(=O)N1CNc1ccc2nc(SC3C=CCCC3)sc2c1 (stereo not drawn),T/C,"dose: 12.5 mg/kg/injection, schedule: Q01DX009 (ip), vehicle: Klucel (hydroxypropylcellulose) (HPC)",106 % of control
same,T/C,"dose: 25.0 mg/kg/injection, schedule: Q01DX009 (ip), vehicle: Klucel (hydroxypropylcellulose) (HPC)",101 % of control
same,T/C,"dose: 50.0 mg/kg/injection, schedule: Q01DX009 (ip), vehicle: Klucel (hydroxypropylcellulose) (HPC)",90 % of control and 98 % of control
same,T/C,"dose: 200.0 mg/kg/injection, schedule: Q01DX009 (ip), vehicle: Klucel (hydroxypropylcellulose) (HPC)",91 % of control
N#CC(NCc1ccccc1)c1ccc2c(c1)OCO2 (stereo not drawn),T/C,"dose: 25.0 mg/kg/injection, schedule: Q01DX009 (ip), vehicle: saline with Tween-80",90 % of control
COc1cc2c[n+](C)c(-c3ccc(Cl)c(Cl)c3)c(OC)c2cc1OC,T/C,"dose: 12.5 mg/kg/injection, schedule: Q04DX003 (ip), vehicle: saline",101 % of control
same,T/C,"dose: 25.0 mg/kg/injection, schedule: Q04DX003 (ip), vehicle: saline",100 % of control
same,T/C,"dose: 50.0 mg/kg/injection, schedule: Q04DX003 (ip), vehicle: saline",100 % of control
CCOCCOCCOc1cccc2cccnc12,T/C,"dose: 50.0 mg/kg/injection, schedule: Q01DX005 (ip), vehicle: Klucel (hydroxypropylcellulose) (HPC)",103 % of control
same,T/C,"dose: 100.0 mg/kg/injection, schedule: Q01DX005 (ip), vehicle: Klucel (hydroxypropylcellulose) (HPC)",107 % of control
same,T/C,"dose: 200.0 mg/kg/injection, schedule: Q01DX005 (ip), vehicle: Klucel (hydroxypropylcellulose) (HPC)",107 % of control
